Test results reported in ChEMBL document CHEMBL6153110, “Peptide Double-Stapling and Arginine N-Glycosylation Triggered the Development of Therapeutic Antimicrobial Peptides Capable of Killing Drug-Resistant Bacteria in Mice” (J Med Chem, 2025).
In brackets after ≈: the same amount, converted by molar mass. Starred links: 1 amine or outer side, 2 acyl side, 3 side chain; linkers in the order of their positions; H or OH if unused. Positions of bridges follow the written chain, without caps; N, C: chain ends. Non-standard residues stand in square brackets, D forms with d. Residues, ends and D or L forms follow the SMILES beside them. X1 = N=C(NCCC[C@H](N[*:1])C(=O)[*:2])N[C@@H]1O[C@H](CO)[C@@H](O[C@H]2O[C@H](CO)[C@@H](O[C@H]3O[C@H](CO)[C@@H](O)[C@H](O)[C@H]3O)[C@H](O)[C@H]2O)[C@H](O)[C@H]1O; Arg(Nω-βLac) = N=C(NCCC[C@H](N)C(=O)O)N[C@@H]1O[C@H](CO)[C@@H](O[C@@H]2O[C@H](CO)[C@H](O)[C@H](O)[C@H]2O)[C@H](O)[C@H]1O; X2 = CC(=O)N[C@@H]1[C@@H](O)[C@H](O)[C@@H](CO)O[C@H]1NC(=N)NCCC[C@H](N[*:1])C(=O)[*:2]; S5 = C=CCCC[C@](C)(N)C(=O)O

How the values were obtained:
Klebsiella pneumoniae = assay: Antimicrobial activity against Klebsiella pneumoniae ATCC 13883 assessed as growth inhibition measured after 8 hrs incubation by standard broth dilution assay; assay type: functional
Staphylococcus aureus = assay: Antimicrobial activity against methicillin-resistant Staphylococcus aureus ATCC 43300 assessed as growth inhibition measured after 8 hrs incubation by standard broth dilution assay; assay type: functional
[1] = Hemolytic activity in BALB/c mouse red blood cells assessed as hemolysis incubated for 1 hrs; assay type: toxicity, cell-based, Erythrocyte; details: read-out: HD50
Streptococcus pneumoniae = assay: Antimicrobial activity against Streptococcus pneumoniae ATCC 49619 assessed as growth inhibition measured after 8 hrs incubation by standard broth dilution assay; assay type: functional
Pseudomonas aeruginosa = assay: Antimicrobial activity against Pseudomonas aeruginosa ATCC 27853 assessed as growth inhibition measured after 8 hrs incubation by standard broth dilution assay; assay type: functional

Row | Structure (SMILES) | MIC (Klebsiella pneumoniae) [µg/mL] | MIC (Staphylococcus aureus) [µg/mL] | HC50 at 1 h [1] [µg/mL] | MIC (Streptococcus pneumoniae) [µg/mL] | MIC (Pseudomonas aeruginosa) [µg/mL]
1 | CC(=O)N[C@@H](CC(C)C)C(=O)N[C@@H](CCCCN)C(=O)N[C@@H](CCCNC(=N)N)C(=O)N[C@H](C(=O)N[C@@H](Cc1c[nH]c2ccccc12)C(=O)N[C@@H](CCCCN)C(=O)N[C@@H](CCCNC(=N)N)C(=O)N[C@H](C(=O)N[C@@H](Cc1ccccc1)C(=O)N[C@@H](CCCCN)C(=O)N[C@@H](CC(C)C)C(=O)N[C@@H](CC(C)C)C(=O)N[C@@H](CCCCN)C(=O)N[C@@]1(C)CCC/C=C\CCC[C@@](C)(C(=O)N[C@@H](CCCCN)C(=O)N[C@@H](CCCCN)C(=O)N[C@@H](CCCCN)C(=O)N2CCC[C@H]2C(=O)N[C@H](C(=O)N[C@@H](CCCNC(=N)N)C(N)=O)C(C)C)NC(=O)[C@H](CCCNC(=N)N)NC(=O)[C@H](Cc2c[nH]c3ccccc23)NC(=O)[C@H](Cc2ccc(O)cc2)NC1=O)C(C)C)C(C)C (Ac-LKRVWKRVFKLLK[S5]YWR[S5]KKKPVR-NH2; staple (Z) 14-18) | 19 (≈ 5.85 µM) | 10.1 (≈ 3.11 µM) | 10.8 | 4.7 (≈ 1.45 µM) | 5 (≈ 1.54 µM)
2 | CC(=O)N[C@@H](CC(C)C)C(=O)N[C@@H](CCCCN)C(=O)N[C@@H](CCCNC(=N)N)C(=O)N[C@H](C(=O)N[C@@H](Cc1c[nH]c2ccccc12)C(=O)N[C@@H](CCCCN)C(=O)N[C@@H](CCCNC(=N)N)C(=O)N[C@H](C(=O)N[C@@H](Cc1ccccc1)C(=O)N[C@@H](CCCCN)C(=O)N[C@@H](CC(C)C)C(=O)N[C@@H](CC(C)C)C(=O)N[C@@H](CCCCN)C(=O)N[C@@]1(C)CCC/C=C\CCC[C@@](C)(C(=O)N[C@@H](CC(C)C)C(=O)N[C@@H](CCCCN)C(=O)N[C@@H](CCCCN)C(=O)N[C@@H](CCCCN)C(=O)N[C@H](C(=O)N[C@@H](CCCNC(=N)N)C(N)=O)C(C)C)NC(=O)[C@H](CCCNC(=N)N)NC(=O)[C@H](Cc2c[nH]c3ccccc23)NC(=O)[C@H](Cc2ccc(O)cc2)NC1=O)C(C)C)C(C)C (Ac-LKRVWKRVFKLLK[S5]YWR[S5]LKKKVR-NH2; staple (Z) 14-18) | 10.1 (≈ 3.09 µM) | 4.9 (≈ 1.5 µM) | 13.1 | 4.7 (≈ 1.44 µM) | 5 (≈ 1.53 µM)
3 | CC(=O)N[C@@H](CC(C)C)C(=O)N[C@@H](CCCCN)C(=O)N[C@@H](CCCNC(=N)N)C(=O)N[C@H](C(=O)N[C@@H](Cc1c[nH]c2ccccc12)C(=O)N[C@@H](CCCCN)C(=O)N[C@@H](CCCNC(=N)N)C(=O)N[C@H](C(=O)N[C@@H](Cc1ccccc1)C(=O)N[C@@H](CCCCN)C(=O)N[C@@H](CC(C)C)C(=O)N[C@@H](CC(C)C)C(=O)N[C@@H](CCCCN)C(=O)N[C@@]1(C)CCC/C=C\CCC[C@@](C)(C(=O)N[C@@H](CC(C)C)C(=O)N[C@@H](CCCCN)C(=O)N[C@@H](CCCCN)C(=O)N2CCC[C@H]2C(=O)N[C@@H](CCCCN)C(=O)N[C@@H](CCCNC(=N)N)C(N)=O)NC(=O)[C@H](CCCNC(=N)N)NC(=O)[C@H](Cc2c[nH]c3ccccc23)NC(=O)[C@H](Cc2ccc(O)cc2)NC1=O)C(C)C)C(C)C (Ac-LKRVWKRVFKLLK[S5]YWR[S5]LKKPKR-NH2; staple (Z) 14-18) | 19.2 (≈ 5.89 µM) | 4.9 (≈ 1.5 µM) | 8.9 | 4.7 (≈ 1.44 µM) | 5 (≈ 1.53 µM)
4 | CC(=O)N[C@@H](CC(C)C)C(=O)N[C@@H](CCCCN)C(=O)N[C@@H](CCCNC(=N)N)C(=O)N[C@H](C(=O)N[C@@H](Cc1c[nH]c2ccccc12)C(=O)N[C@@H](CCCCN)C(=O)N[C@@H](CCCNC(=N)N)C(=O)N[C@H](C(=O)N[C@@H](Cc1ccccc1)C(=O)N[C@@H](CCCCN)C(=O)N[C@@H](CC(C)C)C(=O)N[C@@H](CC(C)C)C(=O)N[C@@H](CCCCN)C(=O)N[C@@]1(C)CCC/C=C\CCC[C@@](C)(C(=O)N[C@@H](CC(C)C)C(=O)N[C@@H](CCCCN)C(=O)N[C@@H](CCCCN)C(=O)N2CCC[C@H]2C(=O)N[C@H](C(=O)N[C@@H](CCCNC(=N)N)C(N)=O)C(C)C)NC(=O)[C@H](CCCNC(=N)N)NC(=O)[C@H](Cc2c[nH]c3ccccc23)NC(=O)[C@H](Cc2ccc(O)cc2)NC1=O)C(C)C)C(C)C (Ac-LKRVWKRVFKLLK[S5]YWR[S5]LKKPVR-NH2; staple (Z) 14-18) | 2.5 (≈ 0.773 µM) | 4.9 (≈ 1.52 µM) | 12.2 | 2.4 (≈ 0.742 µM) | 5 (≈ 1.55 µM)
5 | CC(=O)N[C@@H](CC(C)C)C(=O)N[C@@H](CCCCN)C(=O)N[C@@H](CCCNC(=N)N)C(=O)N[C@H](C(=O)N[C@@H](Cc1c[nH]c2ccccc12)C(=O)N[C@@H](CCCCN)C(=O)N[C@@H](CCCNC(=N)N)C(=O)N[C@H](C(=O)N[C@@H](CCCCN)C(=O)N[C@@H](CCCCN)C(=O)N[C@@H](CC(C)C)C(=O)N[C@@H](CC(C)C)C(=O)N[C@@H](CCCCN)C(=O)N[C@@]1(C)CCC/C=C\CCC[C@@](C)(C(=O)N[C@@H](CC(C)C)C(=O)N[C@@H](CCCCN)C(=O)N[C@@H](CCCCN)C(=O)N2CCC[C@H]2C(=O)N[C@H](C(=O)N[C@@H](CCCNC(=N)N)C(N)=O)C(C)C)NC(=O)[C@H](CCCNC(=N)N)NC(=O)[C@H](Cc2c[nH]c3ccccc23)NC(=O)[C@H](Cc2ccc(O)cc2)NC1=O)C(C)C)C(C)C (Ac-LKRVWKRVKKLLK[S5]YWR[S5]LKKPVR-NH2; staple (Z) 14-18) | 19.2 (≈ 5.97 µM) | 4.9 (≈ 1.52 µM) | 38 | 2.4 (≈ 0.747 µM) | 5 (≈ 1.56 µM)
6 | CC(=O)N[C@@H](CC(C)C)C(=O)N[C@@H](CCCCN)C(=O)N[C@@H](CCCNC(=N)N[C@@H]1O[C@H](CO)[C@@H](O[C@@H]2O[C@H](CO)[C@H](O)[C@H](O)[C@H]2O)[C@H](O)[C@H]1O)C(=O)N[C@H](C(=O)N[C@@H](Cc1c[nH]c2ccccc12)C(=O)N[C@@H](CCCCN)C(=O)N[C@@H](CCCNC(=N)N)C(=O)N[C@H](C(=O)N[C@@H](Cc1ccccc1)C(=O)N[C@@H](CCCCN)C(=O)N[C@@H](CC(C)C)C(=O)N[C@@H](CC(C)C)C(=O)N[C@@H](CCCCN)C(=O)N[C@@H](CCCNC(=N)N)C(=O)N[C@@H](Cc1ccc(O)cc1)C(=O)N[C@@H](Cc1c[nH]c2ccccc12)C(=O)N[C@@H](CCCNC(=N)N)C(=O)N[C@@H](CCC(N)=O)C(=O)N[C@@H](CC(C)C)C(=O)N[C@@H](CCCCN)C(=O)N[C@@H](CCCCN)C(=O)N1CCC[C@H]1C(=O)N[C@H](C(=O)N[C@@H](CCCNC(=N)N)C(N)=O)C(C)C)C(C)C)C(C)C (Ac-LK[Arg(Nω-βLac)]VWKRVFKLLKRYWRQLKKPVR-NH2) | 38 (≈ 10.6 µM) | 4.9 (≈ 1.36 µM) | 33.8 | 9.9 (≈ 2.76 µM) | 5 (≈ 1.39 µM)
7 | CC(=O)N[C@@H](CC(C)C)C(=O)N[C@@H](CCCCN)C(=O)N[C@@H](CCCNC(=N)N[C@@H]1O[C@H](CO)[C@@H](O[C@H]2O[C@H](CO)[C@@H](O[C@H]3O[C@H](CO)[C@@H](O)[C@H](O)[C@H]3O)[C@H](O)[C@H]2O)[C@H](O)[C@H]1O)C(=O)N[C@H](C(=O)N[C@@H](Cc1c[nH]c2ccccc12)C(=O)N[C@@H](CCCCN)C(=O)N[C@@H](CCCNC(=N)N)C(=O)N[C@H](C(=O)N[C@@H](Cc1ccccc1)C(=O)N[C@@H](CCCCN)C(=O)N[C@@H](CC(C)C)C(=O)N[C@@H](CC(C)C)C(=O)N[C@@H](CCCCN)C(=O)N[C@@H](CCCNC(=N)N)C(=O)N[C@@H](Cc1ccc(O)cc1)C(=O)N[C@@H](Cc1c[nH]c2ccccc12)C(=O)N[C@@H](CCCNC(=N)N)C(=O)N[C@@H](CCC(N)=O)C(=O)N[C@@H](CC(C)C)C(=O)N[C@@H](CCCCN)C(=O)N[C@@H](CCCCN)C(=O)N1CCC[C@H]1C(=O)N[C@H](C(=O)N[C@@H](CCCNC(=N)N)C(N)=O)C(C)C)C(C)C)C(C)C (Ac-LK[X1]VWKRVFKLLKRYWRQLKKPVR-NH2) | 38 (≈ 10.1 µM) | 2.5 (≈ 0.666 µM) | 58.1 | 16.9 (≈ 4.5 µM) | 5 (≈ 1.33 µM)
8 | CC(=O)N[C@@H]1[C@@H](O)[C@H](O)[C@@H](CO)O[C@H]1NC(=N)NCCC[C@H](NC(=O)[C@H](CCCCN)NC(=O)[C@H](CC(C)C)NC(C)=O)C(=O)N[C@H](C(=O)N[C@@H](Cc1c[nH]c2ccccc12)C(=O)N[C@@H](CCCCN)C(=O)N[C@@H](CCCNC(=N)N)C(=O)N[C@H](C(=O)N[C@@H](Cc1ccccc1)C(=O)N[C@@H](CCCCN)C(=O)N[C@@H](CC(C)C)C(=O)N[C@@H](CC(C)C)C(=O)N[C@@H](CCCCN)C(=O)N[C@@H](CCCNC(=N)N)C(=O)N[C@@H](Cc1ccc(O)cc1)C(=O)N[C@@H](Cc1c[nH]c2ccccc12)C(=O)N[C@@H](CCCNC(=N)N)C(=O)N[C@@H](CCC(N)=O)C(=O)N[C@@H](CC(C)C)C(=O)N[C@@H](CCCCN)C(=O)N[C@@H](CCCCN)C(=O)N1CCC[C@H]1C(=O)N[C@H](C(=O)N[C@@H](CCCNC(=N)N)C(N)=O)C(C)C)C(C)C)C(C)C (Ac-LK[X2]VWKRVFKLLKRYWRQLKKPVR-NH2) | 38 (≈ 10.9 µM) | 2.5 (≈ 0.72 µM) | 45.2 | 9.9 (≈ 2.85 µM) | 5 (≈ 1.44 µM)
